Experimental data reported in patent US4012516A, “Pharmacologically active compositions” (Burroughs Wellcome Co., priority 1975, dated 1977).
Where two headings read alike, the source gives them in different places.

Tested on: human chopped lung tissue
Test: Inhibition of histamine release from human chopped lung tissue passively sensitized in vitro with reaginic antibody, challenged with homologous antigen
Assay type: cell-based
Details: for inhibition at 0.001 µM: Salbutamol 10^-9 M alone; for inhibition at 0.0001 µM: Salbutamol 10^-10 M alone; for inhibition at 1 µM: Compound (II) 10^-6 M alone
From the text: The release of histamine from lung preparations treated in this way is known to be inhibited by both the stimulants and the compounds of formula (I) when used separately, but it has now been shown that their combined effect is greater than was to be expected from a knowledge of the activity of the individual components, and in particular the inhibition is greater than the sum of the individual responses when the components are used separately at the same concentrations. The compounds of formula (I) are represented by the formula [drawing 1] wherein Z is carbonyl (C=O) or oxygen (--O--), and X is carboxy or a 5-tetrazolyl group, and salts thereof with pharmaceutically acceptable cations. Of especial value are:
The experimental procedure used was that using chopped human lung tissue substantially as described in Br. Med. J. 3, 272 (1968).

[1] = Homo sapiens, Experiment A, Compound (II) none, read-out: Percentage Inhibition of Histamine Release
[2] = Homo sapiens, Experiment B, Compound (II) none, read-out: Percentage Inhibition of Histamine Release

CC(C)(C)NCC(O)c1ccc(O)c(CO)c1 (stereo not drawn) [Salbutamol, α'-t-butylaminomethyl-4-hydroxy-m-xylene-α',α^3-diol, reference compound]
inhibition at 0.001 µM [1]: 0% | inhibition at 0.0001 µM [1]: 17% | inhibition at 0.01 µM (Homo sapiens, Experiment B, Salbutamol 10^-8 M alone, Compound (II) none, read-out: Percentage Inhibition of Histamine Release): 27% | inhibition at 0.001 µM [2]: 22% | inhibition at 0.0001 µM [2]: 0.9%

O=C1c2ccccc2S(=O)(=O)c2cc(-c3nnn[nH]3)ccc21 [Compound (II), 3-(5-TETRAZOLYL)THIOXANTHONE-10,10-DIOXIDE]
Percentage Inhibition of Histamine Release (Experiment A, combination: Compound (II) 10^-6 M + Salbutamol 10^-9 M): 49% | Percentage Inhibition of Histamine Release (Experiment A, combination: Compound (II) 10^-6 M + Salbutamol 10^-10 M): 58% | Percentage Inhibition of Histamine Release (Experiment B, combination: Compound (II) 10^-6 M + Salbutamol 10^-8 M): 38% | Percentage Inhibition of Histamine Release (Experiment B, combination: Compound (II) 10^-6 M + Salbutamol 10^-9 M): 96% | Percentage Inhibition of Histamine Release (Experiment B, combination: Compound (II) 10^-6 M + Salbutamol 10^-10 M): -11% | Percentage Inhibition of Histamine Release (Experiment B, combination: Compound (II) 10^-7 M + Salbutamol 10^-8 M): 64% | Percentage Inhibition of Histamine Release (Experiment B, combination: Compound (II) 10^-7 M + Salbutamol 10^-9 M): 80.5% | Percentage Inhibition of Histamine Release (Experiment B, combination: Compound (II) 10^-7 M + Salbutamol 10^-10 M): -5% | inhibition at 1 µM (Homo sapiens, Experiment A, Salbutamol none, read-out: Percentage Inhibition of Histamine Release): 15% | inhibition at 1 µM (Homo sapiens, Experiment B, Salbutamol none, read-out: Percentage Inhibition of Histamine Release): -14.5% | inhibition at 0.1 µM (Homo sapiens, Experiment B, Compound (II) 10^-7 M alone, Salbutamol none, read-out: Percentage Inhibition of Histamine Release): -13% | anti-allergic effect in combination with bronchodilator stimulants (combined with bronchodilators acting directly or indirectly by stimulation): potentiated
